According to patent publication US20260042764A1, “COMPOSITIONS AND METHODS FOR INHIBITION OF KRAS” (TheRas, Inc., priority 2022, published 2026):

Columns and labels:
[1] = biological target: T1, Avi-KRAS WT (1-169) GppNHp/RAF1 RBD-3xFLAG (52-151) (Homo sapiens, UniProt P01116); assay: Raf1-KRAS WT-GppNHP disruption HTRF assay (Biological Example 1); assay type: binding
T1 construct: Avi-KRAS WT (1-169)
Method in brief: (§1)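 Compound disruption of KRAS-GppNHp/RAF1 RBD binding read by HTRF after two sequential 1 h room-temperature incubations (protein mix, then detection reagents), shaken at 700 rpm. Buffer Tris pH 7.5 with MgCl2, BSA, Tween and 10% DMSO; results given as percent activity relative to DMSO (100%).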

[2] = biological target: T2, Avi-KRAS G12R (1-169) GppNHp/RAF1 RBD-3xFLAG (52-151) (Homo sapiens, UniProt P01116, G12R); assay: Raf1-KRAS G12R-GppNHP disruption HTRF assay (Biological Example 1); assay type: binding
T2 construct: Avi-KRAS G12R (1-169)
Method in brief: as §1

[3] = biological target: T3, Avi-KRAS G12D (1-169) GppNHp/RAF1 RBD-3xFLAG (52-151) (Homo sapiens, UniProt P01116, G12D); assay: Raf1-KRAS G12D-GppNHP disruption HTRF assay (Biological Example 1); assay type: binding
T3 construct: Avi-KRAS G12D (1-169)
Method in brief: as §1

[4] = system: GP2d cells (KRAS G12D); assay: Cell-based pERK HTRF assay in GP2d cell (Biological Example 2); conditions: GP2d (KRAS G12D) cells, pERK HTRF
Method in brief: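 GP2d (KRAS G12D) cells were plated in DMEM/10% FBS and treated the next day for 60 min with compounds. Dosing used 9-point half-log series starting at 1 μM or 100 nM in 0.25% DMSO. Lysates were read by HTRF pERK (d2/Eu cryptate antibodies) after 4–24 h at room temperature, with excitation at 320 nm and emission at 615 nm.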

[5] = system: SW620 cells (KRAS G12V); assay: Cell-based pERK HTRF assay in SW620 cell (Biological Example 4); conditions: pERK HTRF
Method in brief: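 SW620 seeded in RPMI/10% FBS, next day dosed 4 h (top 1 μM, half-log, 9 pts, 0.25% DMSO). Lysed, pERK by d2/Eu cryptate HTRF, 4–24 h RT, 615 nm read.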

[6] = biological target: T4, Avi-KRAS G12V (1-169) GppNHp/RAF1 RBD-3xFLAG (52-151) (Homo sapiens, UniProt P01116, G12V); assay: Raf1-KRAS G12V-GppNHP disruption HTRF assay (Biological Example 1); assay type: binding
T4 construct: Avi-KRAS G12V (1-169)
Method in brief: as §1

[7] = KRAS WT, GppNHp-loaded, class symbols
[8] = KRAS G12R, GppNHp-loaded, class symbols
[9] = KRAS G12D, GppNHp-loaded, class symbols
[10] = Homo sapiens, SW-620, SW620 (KRAS G12V) cells, class symbols
[11] = KRAS G12V, GppNHp-loaded, class symbols
[12] = Homo sapiens, SW-620, SW620 (KRAS G12V) cells
[13] = KRAS WT, GppNHp-loaded, Table 11
[14] = KRAS G12R, GppNHp-loaded, Table 11
[15] = KRAS G12D, GppNHp-loaded, Table 11
[16] = KRAS G12V, GppNHp-loaded, Table 11

T4 sequence (P01116 1-169 isoform P01116-2 G12V): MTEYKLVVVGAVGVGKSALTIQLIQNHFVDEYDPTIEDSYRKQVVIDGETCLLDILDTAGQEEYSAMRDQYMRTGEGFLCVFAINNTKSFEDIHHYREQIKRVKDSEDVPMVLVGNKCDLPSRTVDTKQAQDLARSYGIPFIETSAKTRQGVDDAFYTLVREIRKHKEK
T1 sequence (P01116 1-169 isoform P01116-2): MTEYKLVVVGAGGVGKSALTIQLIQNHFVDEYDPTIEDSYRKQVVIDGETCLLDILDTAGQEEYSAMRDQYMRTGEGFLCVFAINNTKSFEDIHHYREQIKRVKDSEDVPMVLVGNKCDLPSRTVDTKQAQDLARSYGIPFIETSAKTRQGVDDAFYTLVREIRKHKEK
T3 sequence (P01116 1-169 isoform P01116-2 G12D): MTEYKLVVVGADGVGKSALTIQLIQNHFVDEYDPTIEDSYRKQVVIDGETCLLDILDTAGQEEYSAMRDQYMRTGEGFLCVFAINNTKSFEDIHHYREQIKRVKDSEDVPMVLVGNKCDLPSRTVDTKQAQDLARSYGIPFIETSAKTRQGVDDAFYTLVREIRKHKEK
T2 sequence (P01116 1-169 isoform P01116-2 G12R): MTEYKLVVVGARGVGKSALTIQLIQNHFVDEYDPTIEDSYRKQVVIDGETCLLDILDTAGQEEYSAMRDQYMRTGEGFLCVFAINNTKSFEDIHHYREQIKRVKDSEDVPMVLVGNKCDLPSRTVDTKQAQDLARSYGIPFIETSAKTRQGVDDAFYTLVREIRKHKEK

SMILES	IC50 ([1]; KRAS WT-GppNHp/RAF1 RBD HTRF) [µM]	IC50 ([2]; KRAS G12R-GppNHp/RAF1 RBD HTRF) [µM]	IC50 ([3]; KRAS G12D-GppNHp/RAF1 RBD HTRF) [µM]	IC50 ([4]; GP2d) [µM]	IC50 [5, 12] [µM]	IC50 ([6]; KRAS G12V-GppNHp/RAF1 RBD HTRF) [µM]	further results
CCN(c1nc(OC[C@@]23CCCN2C[C@H](F)C3)nc2c(F)c(-c3ccc(F)c4sc(N)c(C#N)c34)c(C(F)(F)F)cc12)[C@H]1CCN(C(=O)OC2CN(C(C)=O)C2)C1 (atropisomer, axis not shown) [Compound 721]							IC50 [1, 7]: < 0.1 µM; IC50 [2, 8]: < 0.1 µM; IC50 [3, 9]: < 0.1 µM; IC50 ([4]; GP2d, class symbols): < 0.1 µM; IC50 [5, 10]: < 0.1 µM; IC50 [6, 11]: < 0.1 µM
CCN(c1nc(OC[C@@]23CCCN2C[C@H](F)C3)nc2c(F)c(-c3ccc(F)c4sc(N)c(C#N)c34)c(C(F)(F)F)cc12)[C@H]1C[C@H](C)N(C(=O)[C@@H](C)OC)C1 (atropisomer, axis not shown) [Compound 747]							IC50 [1, 7]: 0.1 to 1 µM; IC50 [2, 8]: 0.1 to 1 µM; IC50 [3, 9]: 0.1 to 1 µM; IC50 ([4]; GP2d, class symbols): < 0.1 µM; IC50 [5, 10]: < 0.1 µM; IC50 [6, 11]: 0.1 to 1 µM
CC(C)C(=O)N1CC[C@@H](N(C)c2nc(OC[C@@]34CCCN3C[C@H](F)C4)nc3c(F)c(-c4ccc(F)c5sc(N)c(C#N)c45)c(C(F)(F)F)cc23)[C@H]1C [Compound 261]				< 0.1	< 0.1		IC50 [1, 13]: < 0.1 µM; IC50 [2, 14]: 0.1 to 1 µM; IC50 [3, 15]: 0.1 to 1 µM; IC50 [6, 16]: 0.1 to 1 µM
CO[C@@H]1C[C@@H](COc2nc(N(C)[C@H]3CCN(C(C)=O)[C@H]3C)c3cc(C(F)(F)F)c(-c4ccc(F)c5sc(N)c(C#N)c45)c(F)c3n2)N(C)C1 [Compound 238]				> 1	> 1		IC50 [1, 13]: > 10 µM; IC50 [2, 14]: > 10 µM; IC50 [3, 15]: > 10 µM; IC50 [6, 16]: > 10 µM
C[C@H]1C[C@H](N(c2nc(OC[C@@]34CCCN3C[C@H](F)C4)nc3c(F)c(-c4ccc(F)c5sc(N)c(C#N)c45)c(C(F)(F)F)cc23)C2CC2)CN1C(=O)C1CC1 [Compound 474]	0.1 to 1	0.1 to 1	0.1 to 1	< 0.1	< 0.1	0.1 to 1	
C[C@@H]1[C@H](N(C)c2nc(OC[C@]34C[C@@H](F)CN3CC3(CC3)C4)nc3c(F)c(-c4ccc(F)c5sc(N)c(C#N)c45)c(C(F)(F)F)cc23)CCN1C(=O)C1CC1 [Compound 564]	0.1 to 1	0.1 to 1	0.1 to 1	< 0.1	< 0.1	1 to 10	
CCN(c1nc(OC[C@@]23CCCN2C[C@H](F)C3)nc2c(F)c(-c3ccc(F)c4sc(N)c(C#N)c34)c(C(F)(F)F)cc12)[C@@H]1CCN(C(=O)C2CC2)[C@@H]1C [Compound 406]	0.1 to 1	0.1 to 1	0.1 to 1	< 0.1	< 0.1	0.1 to 1	
CC[C@@H]1[C@H](N(C)c2nc(OC[C@@]34CCCN3C[C@H](F)C4)nc3c(F)c(-c4ccc(F)c5sc(N)c(C#N)c45)c(C(F)(F)F)cc23)CCN1C(=O)C(C)C [Compound 433]	1 to 10	1 to 10	1 to 10	0.1 to 1	0.1 to 1	1 to 10	
C[C@@H]1[C@H](N(C)c2nc(OC[C@@]34CCCN3C[C@H](F)C4)nc3c(F)c(-c4ccc(F)c5sc(N)c(C#N)c45)c(C(F)(F)F)cc23)CCN1C(=O)C1CC1 (atropisomer, axis not shown) [Compound 334]	> 10	> 10	> 10			> 10	IC50 [4]: 0.1 to 1 µM; IC50 ([5]; SW620 (KRAS G12V) cells): 0.1 to 1 µM
N#Cc1c(N)sc2c(F)ccc(-c3c(C(F)(F)F)cc4c(N5C[C@H]6C[C@@H]5CO6)nc(OC[C@]56C[C@@H](F)CN5CC5(CC5)C6)nc4c3F)c12 [Compound 595]							IC50 [1, 7]: 1 to 10 µM; IC50 [2, 8]: 1 to 10 µM; IC50 [3, 9]: 1 to 10 µM; IC50 ([4]; GP2d, class symbols): < 0.1 µM; IC50 [5, 10]: < 0.1 µM; IC50 [6, 11]: 1 to 10 µM
CCN(c1nc(OC[C@@]23CCCN2C[C@H](F)C3)nc2c(F)c(-c3ccc(F)c4sc(N)c(C#N)c34)c(C(F)(F)F)cc12)[C@H]1C[C@H](COC)N(C(=O)OC)C1 (atropisomer, axis not shown) [Compound 718]							IC50 [1, 7]: < 0.1 µM; IC50 [2, 8]: < 0.1 µM; IC50 [3, 9]: < 0.1 µM; IC50 ([4]; GP2d, class symbols): < 0.1 µM; IC50 [5, 10]: < 0.1 µM; IC50 [6, 11]: < 0.1 µM
CCN(c1nc(OC[C@@]23CCCN2C[C@H](F)C3)nc2c(F)c(-c3ccc(F)c4sc(N)c(C#N)c34)c(C(F)(F)F)cc12)[C@@H]1C[C@H](C)N(C(=O)C2CC2)C1 (atropisomer, axis not shown) [Compound 588]							IC50 [1, 7]: 0.1 to 1 µM; IC50 [2, 8]: 0.1 to 1 µM; IC50 [3, 9]: 0.1 to 1 µM; IC50 ([4]; GP2d, class symbols): < 0.1 µM; IC50 [5, 10]: < 0.1 µM; IC50 [6, 11]: 0.1 to 1 µM
CCC(=O)N1CC[C@@H](N(C)c2nc(OC[C@@]34CCCN3C[C@H](F)C4)nc3c(F)c(-c4ccc(F)c5sc(N)c(C#N)c45)c(C(F)(F)F)cc23)[C@H]1CC [Compound 432]	0.1 to 1	0.1 to 1	1 to 10	< 0.1	0.1 to 1	1 to 10	

More lines, main results first:

IC50 ([1]; KRAS WT-GppNHp/RAF1 RBD HTRF) [µM]	IC50 ([2]; KRAS G12R-GppNHp/RAF1 RBD HTRF) [µM]	IC50 ([3]; KRAS G12D-GppNHp/RAF1 RBD HTRF) [µM]	IC50 ([4]; GP2d) [µM]	IC50 [5, 12] [µM]	IC50 ([6]; KRAS G12V-GppNHp/RAF1 RBD HTRF) [µM]	SMILES	further results
0.1 to 1	0.1 to 1	0.1 to 1	< 0.1	< 0.1	0.1 to 1	CCN(c1nc(OC[C@@]23CCCN2C[C@H](F)C3)nc2c(F)c(-c3ccc(F)c4sc(N)c(C#N)c34)c(C(F)(F)F)cc12)[C@@H]1CCS(=O)(=O)C1 [Compound 477]	
0.1 to 1	0.1 to 1	0.1 to 1	< 0.1	< 0.1	0.1 to 1	CC(=O)N1C[C@H](N(C)c2nc(OC[C@@]34CCCN3C[C@H](F)C4)nc3c(F)c(-c4ccc(F)c5sc(N)c(C#N)c45)c(C(F)(F)F)cc23)C[C@H]1C [Compound 321]	
			0.1 to 1	0.1 to 1		CS(=O)(=O)C1CN(c2nc(OC[C@@]34CCCN3C[C@H](F)C4)nc3c(F)c(-c4ccc(F)c5sc(N)c(C#N)c45)c(C(F)(F)F)cc23)C1 [Compound 223]	IC50 [1, 13]: 0.1 to 1 µM; IC50 [2, 14]: 1 to 10 µM; IC50 [3, 15]: 0.1 to 1 µM; IC50 [6, 16]: 1 to 10 µM
1 to 10	1 to 10	1 to 10	< 0.1	0.1 to 1	1 to 10	CC(=O)N1CC[C@](C)(N(C)c2nc(OC[C@@]34CCCN3C[C@H](F)C4)nc3c(F)c(-c4ccc(F)c5sc(N)c(C#N)c45)c(C(F)(F)F)cc23)C1 [Compound 505]	
1 to 10	1 to 10	1 to 10	< 0.1	< 0.1	1 to 10	CC(=O)N1CCN(c2nc(OC[C@@]34CCCN3C[C@H](F)C4)nc3c(F)c(-c4ccc(F)c5sc(N)c(C#N)c45)c(C(F)(F)F)cc23)C2CC21 (stereo partly drawn) [Compound 358]	
0.1 to 1	1 to 10	0.1 to 1	< 0.1	< 0.1	1 to 10	CN1C[C@@H](N(C)c2nc(OC[C@@]34CCCN3C[C@H](F)C4)nc3c(F)c(-c4ccc(F)c5sc(N)c(C#N)c45)c(C(F)(F)F)cc23)CCC1=O [Compound 478]	
0.1 to 1	1 to 10	1 to 10	< 0.1	< 0.1	1 to 10	N#Cc1c(N)sc2c(F)ccc(-c3c(C(F)(F)F)cc4c(N5CCN6C(=O)OCC6C5)nc(OCC56CCCN5CC(F)C6)nc4c3F)c12 (stereo not drawn) [Compound 428]	
1 to 10	0.1 to 1	0.1 to 1	< 0.1	< 0.1	0.1 to 1	C[C@H]1CN(c2nc(OC[C@@]34CCCN3C[C@H](F)C4)nc3c(F)c(-c4ccc(F)c5sc(N)c(C#N)c45)c(C(F)(F)F)cc23)Cc2cc(C(=O)N(C)C)nn21 [Compound 402]	
			< 0.1	< 0.1		CC(=O)N1CCN(c2nc(OC[C@@]34CCCN3C[C@H](F)C4)nc3c(F)c(-c4ccc(F)c5sc(N)c(C#N)c45)c(C(F)(F)F)cc23)C[C@H]1C [Compound 229]	IC50 [1, 13]: 1 to 10 µM; IC50 [2, 14]: 1 to 10 µM; IC50 [3, 15]: 0.1 to 1 µM; IC50 [6, 16]: 1 to 10 µM
